# From patent US20230081426A1, “COMPOUNDS AND METHODS FOR KRAS MODULATION AND INDICATIONS THEREFOR” (Plexxikon Inc., priority 2020, published 2023)
# Assays:
# [1] = molecular target: T1, G12C-mutant human KRAS (amino acid residues 1-188) (Homo sapiens, UniProt P01116, G12C); test: KRAS Binding Disruption Assay (AlphaScreen; biotinylated KRpep-2d analogue or RAF1-RBD), G12C; conditions: geometric mean, read-out: KRAS GMean IC50 (uM) MUTATION: G12C
# T1 construct: G12D or G12C-mutant human KRAS (amino acid residues 1-188) with FLAG tag; made in house; host or cells: E. coli
# Summary of the method: (§1)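 Compounds are titrated against 5-20 nM mutant KRAS and 5-20 nM of either a biotinylated KRpep-2d analogue or RAF1-RBD, incubated 1 h at 25° C. Disruption is detected as reduced Alpha signal after 1 h with donor and acceptor beads at 10 μg/mL.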
# [2] = molecular target: T2, G12D-mutant human KRAS (amino acid residues 1-188) (Homo sapiens, UniProt P01116, G12D); test: KRAS Binding Disruption Assay (AlphaScreen; biotinylated KRpep-2d analogue or RAF1-RBD), G12D; conditions: KRAS G12D; geometric mean; read-out: KRAS GMean IC50 (uM) MUTATION: G12D
# T2 construct: G12D or G12C-mutant human KRAS (amino acid residues 1-188) with FLAG tag; made in house; host or cells: E. coli
# Summary of the method: as §1
# T2 sequence (P01116 1-188 isoform P01116-2 G12D): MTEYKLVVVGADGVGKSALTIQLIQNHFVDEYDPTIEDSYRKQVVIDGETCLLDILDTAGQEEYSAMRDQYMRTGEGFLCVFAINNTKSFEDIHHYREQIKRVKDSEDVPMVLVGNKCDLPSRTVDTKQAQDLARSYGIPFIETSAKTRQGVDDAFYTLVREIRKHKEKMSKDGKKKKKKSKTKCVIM
# T1 sequence (P01116 1-188 isoform P01116-2 G12C): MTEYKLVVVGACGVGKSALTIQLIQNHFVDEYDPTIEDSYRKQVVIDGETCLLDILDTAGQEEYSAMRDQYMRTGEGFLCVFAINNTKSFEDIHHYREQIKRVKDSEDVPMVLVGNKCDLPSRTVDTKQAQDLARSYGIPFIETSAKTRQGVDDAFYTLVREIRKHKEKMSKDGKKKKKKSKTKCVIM
Structure (SMILES),IC50 [1] [µM],IC50 [2] [µM]
"Oc1cc(-c2ccc3c(N4C[C@H]5CC[C@@H](C4)N5)nc(OCCN4CCC4)nc3c2F)c2ccccc2c1 [P-0713, 4-(2-(2-(azetidin-1-yl)ethoxy)-4-((1R,5S)-3,8-diazabicyclo[3.2.1]octan-3-yl)-8-fluoroquinazolin-7-yl)naphthalen-2-ol]",10 to 100,0.0001 to 10
"Oc1cc(-c2ccc3c(N4C[C@H]5CC[C@@H](C4)N5)nc(OC[C@@H]4CCCN4)nc3c2F)c2ccccc2c1 [P-0714, 4-(4-((1R,5S)-3,8-diazabicyclo[3.2.1]octan-3-yl)-8-fluoro-2-(((S)-pyrrolidin-2-yl)methoxy)quinazolin-7-yl)naphthalen-2-ol]",10 to 100,0.0001 to 10
"Cc1ncoc1COc1nc(N2C[C@H]3CC[C@@H](C2)N3)c2ccc(-c3cc(O)cc4ccccc34)c(F)c2n1 [P-0715, 4-(4-((1R,5S)-3,8-diazabicyclo[3.2.1]octan-3-yl)-8-fluoro-2-((4-methyloxazol-5-yl)methoxy)quinazolin-7-yl)naphthalen-2-ol]",10 to 100,10 to 100
"Oc1cc(-c2ccc3c(N4C[C@H]5CC[C@@H](C4)N5)nc(OCc4cnco4)nc3c2F)c2ccccc2c1 [P-0716, 4-(4-((1R,5S)-3,8-diazabicyclo[3.2.1]octan-3-yl)-8-fluoro-2-(oxazol-5-ylmethoxy)quinazolin-7-yl)naphthalen-2-ol]",10 to 100,0.0001 to 10
"CC(=O)NC(C)(C)COc1nc(N2C[C@H]3CC[C@@H](C2)N3)c2ccc(-c3cc(O)cc4ccccc34)c(F)c2n1 [P-0717, N-(1-((4-((1R,5S)-3,8-diazabicyclo[3.2.1]octan-3-yl)-8-fluoro-7-(3-hydroxynaphthalen-1-yl)quinazolin-2-yl)oxy)-2-methylpropan-2-yl)acetamide]",10 to 100,0.0001 to 10
"CC(C)(COc1nc(N2C[C@H]3CC[C@@H](C2)N3)c2ccc(-c3cc(O)cc4ccccc34)c(F)c2n1)NS(C)(=O)=O [P-0718, N-(1-((4-((1R,5S)-3,8-diazabicyclo[3.2.1]octan-3-yl)-8-fluoro-7-(3-hydroxynaphthalen-1-yl)quinazolin-2-yl)oxy)-2-methylpropan-2-yl)methanesulfonamide]",10 to 100,0.0001 to 10
"CC(C)(CO)COc1nc(N2C[C@H]3CC[C@@H](C2)N3)c2ccc(-c3cc(O)cc4ccccc34)c(F)c2n1 [P-0719, 4-(4-((1R,5S)-3,8-diazabicyclo[3.2.1]octan-3-yl)-8-fluoro-2-(3-hydroxy-2,2-dimethylpropoxy)quinazolin-7-yl)naphthalen-2-ol]",0.0001 to 10,0.0001 to 10
"COC(C)(C)COc1nc(N2C[C@H]3CC[C@@H](C2)N3)c2ccc(-c3cc(O)cc4ccccc34)c(F)c2n1 [P-0720, 4-(4-((1R,5S)-3,8-diazabicyclo[3.2.1]octan-3-yl)-8-fluoro-2-(2-methoxy-2-methylpropoxy)quinazolin-7-yl)naphthalen-2-ol]",10 to 100,0.0001 to 10
"Oc1cc(-c2ccc3c(N4C[C@H]5CC[C@@H](C4)N5)nc(OCC4(O)CCCC4)nc3c2F)c2ccccc2c1 [P-0721, 4-(4-((1R,5S)-3,8-diazabicyclo[3.2.1]octan-3-yl)-8-fluoro-2-((1-hydroxycyclopentyl)methoxy)quinazo-lin-7-yl)naphthalen-2-ol]",10 to 100,0.0001 to 10
"Oc1cc(-c2ccc3c(N4C[C@H]5CC[C@@H](C4)N5)nc(OCC4(O)CCC4)nc3c2F)c2ccccc2c1 [P-0722, 4-(4-((1R,5S)-3,8-diazabicyclo[3.2.1]octan-3-yl)-8-fluoro-2-((1-hydroxycyclobutyl)methoxy)quinazolin-7-yl)naphthalen-2-ol]",10 to 100,0.0001 to 10
"Fc1c(-c2c[nH]c3cccc(C(F)(F)F)c23)ccc2c(N3C[C@H]4CC[C@@H](C3)N4)nc(OCC34CCCN3CCC4)nc12 [P-0723, 4-((1R,5S)-3,8-diazabicyclo[3.2.1]octan-3-yl)-8-fluoro-2-((tetrahydro-1H-pyrrolizin-7a(5H)-yl)methoxy)-7-(4-(trifluoromethyl)-1H-indol-3-yl)quinazoline]",0.0001 to 10,0.0001 to 10
"CN1CCC[C@H]1COc1nc(N2C[C@H]3CC[C@@H](C2)N3)c2cc(F)c(-c3n[nH]c4ccc(F)cc34)c(F)c2n1 [P-0724, 4-((1R,5S)-3,8-diazabicyclo[3.2.1]octan-3-yl)-6,8-difluoro-7-(5-fluoro-1H-indazol-3-yl)-2-(((S)-1-methylpyrrolidin-2-yl)methoxy)quinazoline]",100 to 1000,10 to 100
"CN1CCC[C@H]1COc1nc(N2C[C@H]3CC[C@@H](C2)N3)c2cc(F)c(-c3n[nH]c4ccccc34)c(F)c2n1 [P-0725, 4-((1R,5S)-3,8-diazabicyclo[3.2.1]octan-3-yl)-6,8-difluoro-7-(1H-indazol-3-yl)-2-(((S)-1-methylpyrrolidin-2-yl)methoxy)quinazoline]",100 to 1000,10 to 100
"CN1CCC[C@H]1COc1nc(N2C[C@H]3CC[C@@H](C2)N3)c2cc(F)c(-c3c[nH]c4ccc(F)cc34)c(F)c2n1 [P-0726, 4-((1R,5S)-3,8-diazabicyclo[3.2.1]octan-3-yl)-6,8-difluoro-7-(5-fluoro-1H-indol-3-yl)-2-(((S)-1-methylpyrrolidin-2-yl)methoxy)quinazoline]",10 to 100,0.0001 to 10
"COc1cccc2ncnc(-c3ccc4c(N5C[C@H]6CC[C@@H](C5)N6)nc(OC[C@@H]5CCCN5C)nc4c3F)c12 [P-0727, 4′-((1R,5S)-3,8-diazabicyclo[3.2.1]octan-3-yl)-8′-fluoro-5-methoxy-2′-(((S)-1-methylpyrrolidin-2-yl)methoxy)-4,7′-biquinazoline]",100 to 1000,100 to 1000
"CN1CCC[C@H]1COc1nc(N2C[C@H]3CC[C@@H](C2)N3)c2ccc(-c3nccc4cccc(Cl)c34)c(F)c2n1 [P-0728, 4-((1R,5S)-3,8-diazabicyclo[3.2.1]octan-3-yl)-7-(8-chloroisoquinolin-1-yl)-8-fluoro-2-(((S)-1-methylpyrrolidin-2-yl)methoxy)quinazoline]",100 to 1000,10 to 100
"CN1CCC[C@H]1COc1nc(N2C[C@H]3CC[C@@H](C2)N3)c2ccc(-c3c[nH]c4cccc(C(F)(F)F)c34)cc2n1 [P-0729, 4-((1R,5S)-3,8-diazabicyclo[3.2.1]octan-3-yl)-2-(((S)-1-methylpyrrolidin-2-yl)methoxy)-7-(4-(trifluoromethyl)-1H-indol-3-yl)quinazoline]",10 to 100,0.0001 to 10
"Fc1cc2c(N3C[C@H]4CC[C@@H](C3)N4)nc(OCC34CCCN3CCC4)nc2c(F)c1-c1c[nH]c2cccc(C3CC3)c12 [P-0730, 4-((1R,5S)-3,8-diazabicyclo[3.2.1]octan-3-yl)-7-(4-cyclopropyl-1H-indol-3-yl)-6,8-difluoro-2-((tetrahydro-1H-pyrrolizin-7a(5H)-yl)methoxy)quinazoline]",0.0001 to 10,0.0001 to 10
"CCc1cccc2[nH]cc(-c3c(F)cc4c(N5C[C@H]6CC[C@@H](C5)N6)nc(OCC56CCCN5CCC6)nc4c3F)c12 [P-0731, 4-((1R,5S)-3,8-diazabicyclo[3.2.1]octan-3-yl)-7-(4-ethyl-1H-indol-3-yl)-6,8-difluoro-2-((tetrahydro-1H-pyrrolizin-7a(5H)-yl)methoxy)quinazoline]",0.0001 to 10,0.0001 to 10
